From US10912741B2, “Prevention of liver cancer with safranal-based formulations” (United Arab Emirates University, priority 2019, dated 2021)

What was measured:
Assay type in all cases: in vivo, albino Wistar rats
catalase (CAT) = assay: Catalase activity in liver homogenate, DEN/2-AAF hepatocarcinogenesis model; settings: mean±SEM, 8 rats
Procedure: The experimental hepatocarcinogenesis model was developed according to a protocol by […] et al. that was adapted for our purposes. To initiate and promote hepatocarcinogenesis, diethylnitrosamine (DEN) and 2-acetylaminofluorene (2-AAF) were used, respectively. For hepatocarcinogenesis initiation in this model, a single DEN dose (200 mg/kg b.wt.) dissolved in saline was injected intraperitoneally. After initiation, all rats underwent one period of 5-days fasting, as mitotic proliferative stimuli. To promote hepatocarcinogenesis, 2-acetylaminofluorene (2-AAF) was introduced in the form of six daily intragastric doses (30 mg/kg in 1% Tween 80); two weeks after DEN treatment. […] at doses of 25 mg/kg by weight (b.wt.) and 50 mg/kg b.wt, was administrated orally to rats. These doses have been reported to suppress chemically-induced oxidative damage in rats. A total of 40 adult male albino Wistar rats were randomly divided into […] (n=8) and were subjected to different treatments. Group 1 (control) was orally administered distilled water (5 ml/kg b.wt.) throughout the experimental duration and were injected with a single dose of saline. Group 2 ([…] only) was subjected to a safranal dose (50 mg/kg b.wt.) through oral administration for the duration of the experimental period. Hepatocarcinogenesis was induced by DEN and promoted by 2-AAF, as reported previously, in group 3 (HCC). […] Glutathione (GSH) content was determined by analyzing liver homogenates, according to the method of Van Dooran et al. The assay depends on measuring yellow 5-thiol-2-nitrobenzoate absorbance at 412 nm. Glutathione-S-transferase (GST) activity was determined using the method of Habig et al. GST catalyzes the conjugation of GSH thiol group with 1-Chloro-2,4-dinitrobenzene (CDNB), which can be measured by determining the increase in absorbance at 340 nm. […] CAT decomposes hydrogen peroxide (H2O2) to oxygen and water; therefore, the activity of CAT was evaluated according to by the exponential decomposition of H2O2 at 240 nm. […] UV-160-Shimadzu recording spectrophotometer was used to record absorbances. […]

TNF-α = TNF-α level in serum by ELISA
Procedure: (§1) The experimental hepatocarcinogenesis model was developed according to a protocol by Espandiaria et al. that was adapted for our purposes. To initiate and promote hepatocarcinogenesis, diethylnitrosamine (DEN) and 2-acetylaminofluorene (2-AAF) were used, respectively. For hepatocarcinogenesis initiation in this model, a single DEN dose (200 mg/kg b.wt.) dissolved in saline was injected intraperitoneally. After initiation, all rats underwent one period of 5-days fasting, as mitotic proliferative stimuli. To promote hepatocarcinogenesis, 2-acetylaminofluorene (2-AAF) was introduced in the form of six daily intragastric doses (30 mg/kg in 1% Tween 80); two weeks after DEN treatment.
(§2) Safranal at doses of 25 mg/kg by weight (b.wt.) and 50 mg/kg b.wt, was administrated orally to rats. These doses have been reported to suppress chemically-induced oxidative damage in rats. A total of 40 adult male albino Wistar rats were randomly divided into […] (n=8) and were subjected to different treatments. Group 1 (control) was orally administered distilled water (5 ml/kg b.wt.) throughout the experimental duration and were injected with a single dose of saline. […]
TNF-α level in serum was quantitatively measured using Enzyme-Linked Immunosorbent Assay (ELISA), according to the manufacturer instructions (ELISA kits (R&D Systems), Minnesota, USA. Results are presented in picograms/milligrams.

HDAC = HDAC colorimetric assay in liver homogenate
Procedure: as §1
as §2, with “saline. Group 2 (Safranal only) was subjected to a safranal dose (50 mg/kg b.wt.) through oral administration for the duration of the experimental period.” for “saline.”

CC1=C(C=O)C(C)(C)CC=C1 [Safranal, 2,6,6-trimethylcyclohexa-1,3-diene-1-carbaldehyde]
CAT (catalase (CAT); HCC (DEN/2-AAF) rats + safranal high dose 50 mg/kg b.wt. oral, 12 weeks): 145.4512 ± 4.57 unit/mg protein | CAT (catalase (CAT); HCC (DEN/2-AAF) rats + safranal low dose 25 mg/kg b.wt. oral, 12 weeks): 141.38 ± 0.91 unit/mg protein | CAT (catalase (CAT); safranal alone 50 mg/kg b.wt. oral, no DEN (group 2)): 143.75 ± 1.2 unit/mg protein | TNF-α level in serum (TNF-α; low/high doses of safranal after DEN exposure (groups 4-5)): significant reduction in TNF-α expression | TNF-α level in serum (TNF-α; safranal alone (group 2), vs control group): no significant impact | HDAC activity in liver (HDAC; low/high doses of safranal, DEN-treated (groups 4-5)): restored HDAC activity to the normal range | HDAC activity in liver (HDAC; safranal alone (group 2), compared to control): did not change HDAC activity
